The text below walks through data of EP3120851A1, “4-AMINO-6-(2,6-DICHLOROPHENYL)-8-METHYL-2-(PHENYLAMINO)-PYRIDO[2,3-D]PYRIMIDIN-7(8H)-ONE FOR TREATMENT OF SOLID CANCERS” (Pangaea Biotech S.L., priority 2015, dated 2017).

Holding throughout (assay): MTT cell viability assay, combinations (Chou-Talalay method)
What all share (type): cell-based

The subject of assay [1] is H3122 Cells. As to conditions: for IC50: Homo sapiens. The procedure: (§1) The combinations comprising the compound of formula (1) were tested using an MTT proliferation assay in a panel of tumor cell lines of different origins. All culture materials were obtained from the sources described in Example 2. In the Chou-Talalay method, which is the standard, universally known methodology to determine drug interactions, the two drugs under study are maintained at a fixed ratio of IC50 single agent (drug 1):IC50 single agent (drug 2) while the concentration of total amount of drugs in the combination is varied and the 20% (IC20), 50% (IC50) and 80% (IC80) of growth inhibition of the combination is determined.
(§2) In the activity assays on cell lines the following terms are used: • IC50: Drug concentration at which 50% growth inhibition is achieved. • TKI IC50: The IC50 of the tyrosine kinase inhibitor as single agent. • Compound (1) IC50: The IC50 of compound (1) as single agent. • CI@IC20: The combination index of the combination consisting of drug 1 and drug 2 at a weight ratio equal to IC50 of drug 1:IC50 of drug 2 wherein said combination is used at a total amount that achieves 20% of growth inhibition. • CI@IC50: The combination index of the combination consisting of drug 1 and drug 2 at a weight ratio equal to IC50 of drug 1:IC50 of drug 2, wherein said combination is used at a total amount that achieves 50% of growth inhibition. • CI@IC80: The combination index of the combination consisting of drug 1 and drug 2 at a weight ratio equal to IC50 of drug 1:IC50 of drug 2, wherein said combination is used at a total amount that achieves 80% of growth inhibition. • Combination TKI IC50: The combination index at a tyrosine kinase inhibitor concentration that corresponds to the IC50 (single agent). • The combination index (CI) concept was introduced by Chou T.C. and Talalay P.(Chou TC, Talalay P. Adv Enzyme Regul 1984;22:27-55). The derived combination index equation for two drugs is (D = dosage or concentration): CI = ((D)1)/((Dx)1) + ((D)2)/((Dx)2) [formula] where (Dx)1 is the concentration of drug 1 "alone" that inhibits growth at a x% (i.e. (D50)1 is the concentration of drug 1 "alone" that inhibits growth at a 50%), (Dx)2 is the concentration of drug 2 "alone" that inhibits growth at a x%, (D)1 and (D)2 refer to the concentration of drug 1 and drug 2, respectively, in the combination, wherein the combination inhibits growth at the same x%. The CI Value quantitatively defines synergism (CI<1) (in particular, CI values of CI<0.7 indicates strong synergism, 0.7<CI<0.85 indicates moderate synergism, 0.85<CI<1 indicates slight synergism), additive effect (CI=1) and antagonism (CI>1). Based on the above equation, a plot of CI values at different effect levels (fa's) can be determined. Entering a series of "dose" ((D1), (D2), ((Dx)1 and (Dx)2) and % of growth inhibition (%x or effect (fa))" into an excel sheet for each drug alone and their combinations, the CI values at different x% (or fa levels) are obtained using the above equation. This plot is also called the Fa-CI plot or the Chou-Talalay plot.
(§3) Cell viability in response to combination treatment was assessed by the Thiazolyl Blue Tetrazolium Bromide (MTT) (Sigma, St Louis, MO) assay. Cells from each cell line were seeded at 2000 to 10000 per well in 96-well plates. […] Twenty-four hours after seeding, cells were exposed to compound (1), commercial drug or combinations thereof for 72 h. In the Chou-Talalay method, which is the standard, universally known methodology to determine drug interactions, the two drugs under study are maintained at a fixed ratio IC50 single agent (drug 1):IC50 single agent (drug 2).
(§4) After treatment, cells were incubated with medium containing MTT (0.75 mg/mL in medium) for 1-2 h at 37°C. Culture medium with MTT was removed and formazan crystals reabsorbed in 100 µL DMSO (Sigma, St. Louis, MO). Cell viability was determined by measuring the absorbance at 492 nm, using a microplate reader (BioWhittaker, Walkersville, MD).

In assay [2] the test system is HCC78 cells. The procedure:
as §1, §2, §3, §4

The subject of assay [3] is H2228 Cells. Particulars: Homo sapiens, H2228 cells. The protocol: as §1, §2, §3, §4
Where [4] appears, read: NCI-H3122, 72 h, H3122 cells, tyrosine kinase inhibitor as single agent, 72 h, read-out: TKI IC50.
Setting [5] is: Homo sapiens, HCC78, 72 h, HCC78 cells, tyrosine kinase inhibitor as single agent, 72 h, read-out: TKI IC50.

SMILES strings stand for the structures. Like-named read-outs stand apart in the source and are kept apart here.

For `CCc1cc2c(cc1N1CCC(N3CCOCC3)CC1)C(C)(C)c1[nH]c3cc(C#N)ccc3c1C2=O` [Alectinib, 9-ethyl-6,6-dimethyl-8-(4-morpholinopiperidin-1-yl)-11-oxo-6,11-dihydro-5H-benzo[b]carbazole-3-carbonitrile], in assay [1] (H3122 cells, TKI single agent vs with compound (1)), the “Fold change in the TKI IC50” value came to 3.355 fold. Also, the IC50 in assay [1] (setting [4]) was 50 nM; in assay [1] (NCI-H3122, H3122 cells, TKI in combination with compound (1), read-out: Combination TKI IC50) it was 15 nM.
As for `C[C@@H](Oc1cc(-c2cnn(C3CCNCC3)c2)cnc1N)c1c(Cl)ccc(F)c1Cl` [Crizotinib, 3-[(1R)-1-(2,6-dichloro-3-fluorophenyl)ethoxy]-5-(1-piperidin-4-ylpyrazol-4-yl)pyridin-2-amine], the half-maximal inhibitory concentration (IC50) was 7160 nM in assay [2] (HCC78 cells, tyrosine kinase inhibitor as single agent, 72 h, read-out: TKI IC50); 7200 nM in assay [2] (setting [5]); 250 nM in assay [2] (Homo sapiens, HCC78, read-out: Combination TKI IC50, HCC78 cells, TKI in combination with compound (1)); 249 nM in assay [2] (read-out: Combination TKI IC50, HCC78 cells, TKI in combination with compound (1)); 190 nM in assay [1] (setting [4]); 29 nM in assay [1] (NCI-H3122, read-out: IC50 of crizotinib in presence of compound of formula (1), H3122 cells, combination with compound (1)). The IC50 amounted to 53 nM in assay [3] (NCI-H2228, read-out: IC50 of crizotinib when compound of formula (1) was also administered, combination with compound (1)) and 250 nM in assay [3] (NCI-H2228, tyrosine kinase inhibitor as single agent, 72 h, read-out: TKI IC50).
Consider `COc1cc2c(Oc3ccc(NC(=O)C4(C(=O)Nc5ccc(F)cc5)CC4)cc3F)ccnc2cc1OCCCN1CCOCC1` [Foretinib, N^1'-[3-fluoro-4-[[6-methoxy-7-(3-morpholinopropoxy)-4-quinolyl]oxy]phenyl]-N'-(4-fluorophenyl)cyclopropane-1,1-dicarboxamide], for which the “Fold change in the TKI IC50” value in assay [2] (HCC78 cells, TKI single agent vs with compound (1)) was found to be 2.846 fold. The 50% inhibitory concentration (IC50) in assay [2] (setting [5]) worked out at 370 nM; in assay [2] (Homo sapiens, HCC78, HCC78 cells, TKI in combination with compound (1), read-out: Combination TKI IC50), 130 nM.
